Experimental data taken from US20250320193A1, “OXOISOINDOLINYL SUBSTITUTED PIPERIDINEDIONE DERIVATIVE AND USE THEREOF” (GLUETACS THERAPEUTICS (SHANGHAI) CO., LTD., priority 2022, published 2025).

target: human Cereblon WT GST-tagged protein (Homo sapiens (Human), UniProt Q96SW2); experiment: CRBN-binding affinity, HTRF (CEREBLON BINDING kit, CISBIO); settings: HTRF inhibitory activity
Experimental: I. Determination of CRBN-binding affinity of compounds of the present disclosure:
The CEREBLON BINDING kits (specification: 10,000 tests; product number: Catalog #64BDCRBNPEH; CISBIO company) was used to determine the CRBN binding ability of the compounds to be tested through a HTRF method (homogeneous time-resolved fluorescence). The specific methods are as follows: • 1. […] Then, 2.5 μL of human Cereblon WT GST-tagged protein solution was added to each well. Finally, 5 μL of the thoroughly mixed Thalidomide-Red reagent and GST Eu antibody working solution were added to each of the aforementioned wells. […] The blank control wells were sequentially added with 2.5 μL of diluent #9 (1X) solution, 2.5 μL of PROTAC binding buffer, and 5 μL of thoroughly mixed Thalidomide-Red reagent and GST Eu antibody working solution. • 4.
The corresponding CRBN binding inhibition rate was calculated using the following method: […]
OD 620 nmcompound is the absorbance value of each well of the compounds to be tested of the present disclosure at an emission wavelength of 620 nm. […] OD 620 nmcontrol is the absorbance value of the blank control well at an emission wavelength of 620 nm. […] OD 620 nmStd0 is the absorbance value of the solvent control well at an emission wavelength of 620 nm.

Chain of human Cereblon WT GST-tagged protein (Q96SW2 whole entry): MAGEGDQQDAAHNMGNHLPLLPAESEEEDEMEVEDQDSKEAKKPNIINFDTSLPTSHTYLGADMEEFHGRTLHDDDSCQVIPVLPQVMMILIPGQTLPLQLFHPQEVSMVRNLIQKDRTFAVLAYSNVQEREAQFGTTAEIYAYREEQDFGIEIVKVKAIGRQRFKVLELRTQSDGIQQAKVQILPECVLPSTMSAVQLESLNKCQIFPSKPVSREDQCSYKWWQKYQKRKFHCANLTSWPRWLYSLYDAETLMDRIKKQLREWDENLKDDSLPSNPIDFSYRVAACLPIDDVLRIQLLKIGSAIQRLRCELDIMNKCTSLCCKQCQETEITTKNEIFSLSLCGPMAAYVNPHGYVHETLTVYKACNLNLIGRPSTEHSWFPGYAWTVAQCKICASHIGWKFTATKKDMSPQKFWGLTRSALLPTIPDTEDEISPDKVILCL

Compound | IC50
O=C1CCC(N2Cc3cc(C(=O)N4C5CCC4CN(C(c4ccccc4)c4ccccc4)C5)cc(F)c3C2=O)C(=O)N1 (stereo not shown) [GT-06055, 3-(5-(3-benzhydryl-3,8-diazabicyclo[3.2.1]octane-8-carbonyl)-7-fluoro-1-oxoisoindolin-2-yl)piperidine-2,6-dione] | < 500 nM
O=C1CCC(N2Cc3cc(C(=O)N4CC5CCC4CN5C(c4ccccc4)c4ccccc4)ccc3C2=O)C(=O)N1 (stereo not shown) [GT-06056, 3-(5-(5-benzhydryl-2,5-diazabicyclo[2.2.2]octane-2-carbonyl)-1-oxoisoindolin-2-yl)piperidine-2,6-dione] | < 500 nM
O=C1CCC(N2Cc3cc(C(=O)N4CC5CCC4CN5C(c4ccccc4)c4ccccc4)cc(F)c3C2=O)C(=O)N1 (stereo not shown) [GT-06057, 3-(5-(5-benzhydryl-2,5-diazabicyclo[2.2.2]octane-2-carbonyl)-7-fluoro-1-oxoisoindolin-2-yl)piperidine-2,6-dione] | < 500 nM
CC1CN(C(=O)c2ccc3c(c2)CN(C2CCC(=O)NC2=O)C3=O)CC(C)N1C(c1ccccc1)c1ccccc1 (stereo not shown) [GT-06059, 3-(5-(4-benzhydryl-3,5-dimethylpiperazine-1-carbonyl)-1-oxoisoindolin-2-yl)piperidine-2,6-dione] | < 500 nM
CC1CN(C(=O)c2cc(F)c3c(c2)CN(C2CCC(=O)NC2=O)C3=O)CC(C)N1C(c1ccccc1)c1ccccc1 (stereo not shown) [GT-06060, 3-(5-(4-benzhydryl-3,5-dimethylpiperazine-1-carbonyl)-7-fluoro-1-oxoisoindolin-2-yl)piperidine-2,6-dione] | 500 to 1000 nM
CC1(C)CN(C(=O)c2cc(F)c3c(c2)CN(C2CCC(=O)NC2=O)C3=O)CCN1C(c1ccccc1)c1ccccc1 (stereo not shown) [GT-06062, 3-(5-(4-benzhydryl-3,3-dimethylpiperazine-1-carbonyl)-7-fluoro-1-oxoisoindolin-2-yl)piperidine-2,6-dione] | 500 to 1000 nM

Other lines, results leading:

IC50 | Compound
500 to 1000 nM | O=C1CCC(N2Cc3cc(C(=O)N4CCN(C5c6cc(Cl)ccc6-c6ccc(Cl)cc65)CC4)ccc3C2=O)C(=O)N1 (stereo not shown) [GT-06069, 3-(5-(4-(2,7-dichloro-9H-fluoren-9-yl)piperazine-1-carbonyl)-1-oxoisoindolin-2-yl)piperidine-2,6-dione]
< 500 nM | O=C1CCC(N2Cc3c(ccc(C4=CCN(C(c5ccccc5)c5ccccc5)CC4)c3F)C2=O)C(=O)N1 (stereo not shown) [GT-06072, 3-(5-(1-benzhydryl-1,2,3,6-tetrahydropyridin-4-yl)-4-fluoro-1-oxoisoindolin-2-yl)piperidine-2,6-dione]
< 500 nM | O=C1CCC(N2Cc3cc(CN4CCN(C(c5ccccc5)c5ccccc5)CC4C(F)(F)F)cc(F)c3C2=O)C(=O)N1 (stereo not shown) [GT-06098, 3-(5-((4-benzhydryl-2-(trifluoromethyl)piperazin-1-yl)methyl)-7-fluoro-1-oxoisoindolin-2-yl)piperidine-2,6-dione]
< 500 nM | O=C1CCC(N2Cc3cc(CN4CCN(C(c5ccccc5)c5cccnc5)CC4)cc(F)c3C2=O)C(=O)N1 (stereo not shown) [GT-06111, 3-(7-fluoro-1-oxo-5-((4-(phenyl(pyridin-3-yl)methyl)piperazin-1-yl)methyl)isoindolin-2-yl)piperidine-2,6-dione]
500 to 1000 nM | O=C1CCC(N2Cc3c(CN4CCN(C(c5ccccc5)c5cccnc5)CC4)cccc3C2=O)C(=O)N1 (stereo not shown) [GT-06113, 3-(1-oxo-4-((4-(phenyl(pyridin-3-yl)methyl)piperazin-1-yl)methyl)isoindolin-2-yl)piperidine-2,6-dione]
500 to 1000 nM | O=C1CCC(N2Cc3ccc(CN4CCN(C(c5cccc(F)c5)c5cccc(F)c5)CC4)cc3C2=O)C(=O)N1 (stereo not shown) [GT-06116, 3-(6-((4-(bis(3-fluorophenyl)methyl)piperazin-1-yl)methyl)-1-oxoisoindolin-2-yl)piperidine-2,6-dione]
< 500 nM | O=C1CCC(N2Cc3cc(CN4CCN(C(c5ccccc5)c5ccncc5)CC4)cc(F)c3C2=O)C(=O)N1 (stereo not shown) [GT-06135, 3-(7-fluoro-1-oxo-5-((4-(phenyl(pyridin-4-yl)methyl)piperazin-1-yl)methyl)isoindolin-2-yl)piperidine-2,6-dione]
